Laboratory results as given in the supplement of paper PMC8617591.

Experiments:
[1] = test system: Mycobacterium tuberculosis Erdman (autoluminescent); assay: Einf, fitted maximum growth inhibition of three-drug combination (fraction); higher = stronger maximal inhibition
Procedure: (§1)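 DiaMOND equipotent three-drug combination dose responses (10 doses, 1.5- or 2-fold spacing, centred on IC90) against autoluminescent M. tuberculosis Erdman in 8 in vitro models. Read-out is OD600, or luminescence for the intracellular and dormancy models, normalised to untreated wells. Hill-fit Einf, AUC25 and GRinf are potency metrics; FIC50 and FIC90 are total Loewe fractional inhibitory concentrations as log2 (negative = synergy).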

[2] = test system: Mycobacterium tuberculosis Erdman (autoluminescent); assay: AUC25, normalised area under dose response up to IC25 (three-drug combination) (fraction (0-1)); higher = more potent at low dose
Procedure: as §1

[3] = test system: Mycobacterium tuberculosis Erdman (autoluminescent); assay: GRinf, maximum normalised growth rate inhibition (three-drug combination) (unitless (-1 to 1)); higher = less effect (negative = killing)
Procedure: as §1

[4] = test system: Mycobacterium tuberculosis Erdman (autoluminescent); assay: total FIC90 (Loewe) at 90% inhibition, three-drug combination (log2); higher = more antagonistic
Procedure: as §1

[5] = test system: Mycobacterium tuberculosis Erdman (autoluminescent); assay: total FIC50 (Loewe) at 50% inhibition, three-drug combination (log2); higher = more antagonistic
Procedure: as §1

[6] = in vitro model: acidic pH 5.7, time point: constant (~7 days, model-specific)
[7] = in vitro model: acidic pH 5.7, time point: terminal (~4-5 doublings, model-specific)
[8] = in vitro model: butyrate, time point: constant (~7 days, model-specific)
[9] = in vitro model: butyrate, time point: terminal (~4-5 doublings, model-specific)
[10] = in vitro model: cholesterol 0.05 mM, time point: constant (~7 days, model-specific)
[11] = in vitro model: cholesterol 0.05 mM, time point: terminal (~4-5 doublings, model-specific)
[12] = in vitro model: cholesterol-high 0.2 mM, time point: constant (~7 days, model-specific)
[13] = in vitro model: cholesterol-high 0.2 mM, time point: terminal (~4-5 doublings, model-specific)
[14] = in vitro model: dormancy (butyrate + nitrate, low O2), time point: constant (~7 days, model-specific)
[15] = in vitro model: dormancy (butyrate + nitrate, low O2), time point: terminal (~4-5 doublings, model-specific)
[16] = in vitro model: intracellular J774, time point: constant = terminal
[17] = in vitro model: standard 7H9 glycerol, time point: constant = terminal
[18] = in vitro model: valerate, time point: constant (~7 days, model-specific)
[19] = in vitro model: valerate, time point: terminal (~4-5 doublings, model-specific)

Structure (SMILES): O=[N+]([O-])c1cn2c(n1)OC[C@@H](OCc1ccc(OC(F)(F)F)cc1)C2 [pretomanid] + NC(=O)c1cnccn1 [pyrazinamide] + CO[C@H]1/C=C/O[C@@]2(C)Oc3c(C)c(O)c4c(O)c(c(/C=N/N5CCN(C6CCCC6)CC5)c(O)c4c3C2=O)NC(=O)/C(C)=C\C=C\[C@H](C)[C@H](O)[C@@H](C)[C@@H](O)[C@@H](C)[C@H](OC(C)=O)[C@@H]1C [rifapentine]
- Einf [1, 6]: 0.9
- Einf [1, 7]: 0.992
- Einf [1, 8]: 0.889
- Einf [1, 9]: 0.956
- Einf [1, 10]: 0.768
- Einf [1, 11]: 0.936
- Einf [1, 12]: 0.919
- Einf [1, 13]: 0.999
- Einf [1, 14]: 0.881
- Einf [1, 15]: 0.995
- Einf [1, 16]: 0.98
- Einf [1, 17]: 0.893
- Einf [1, 18]: 0.855
- Einf [1, 19]: 0.918
- AUC25 [2, 6]: 0.0839
- AUC25 [2, 7]: 0.0799
- AUC25 [2, 8]: 0.101
- AUC25 [2, 9]: 0.0909
- AUC25 [2, 10]: 0.118
- AUC25 [2, 11]: 0.103
- AUC25 [2, 12]: 0.0849
- AUC25 [2, 13]: 0.0594
- AUC25 [2, 14]: 0.0875
- AUC25 [2, 15]: 0.0996
- AUC25 [2, 17]: 0.0581
- AUC25 [2, 18]: 0.0881
- AUC25 [2, 19]: 0.0574
- GRinf [3, 6]: -0.227
- GRinf [3, 7]: -0.234
- GRinf [3, 8]: 0.102
- GRinf [3, 9]: 0.0745
- GRinf [3, 10]: -0.296
- GRinf [3, 11]: -0.415
- GRinf [3, 12]: -0.211
- GRinf [3, 13]: -0.626
- GRinf [3, 14]: 0.197
- GRinf [3, 15]: -0.152
- GRinf [3, 16]: -0.184
- GRinf [3, 17]: 0.139
- GRinf [3, 18]: 0.0565
- GRinf [3, 19]: 0.0492
- total FIC90 [4, 7]: -0.284
- total FIC90 [4, 8]: -0.0718
- total FIC90 [4, 9]: 0.587
- total FIC90 [4, 13]: 0.566
- total FIC90 [4, 14]: 0.142
- total FIC90 [4, 15]: 0.838
- total FIC90 [4, 16]: 0.00169
- total FIC90 [4, 19]: -0.054
- total FIC50 [5, 6]: -0.141
- total FIC50 [5, 7]: -0.0208
- total FIC50 [5, 8]: 0.0451
- total FIC50 [5, 9]: 0.0568
- total FIC50 [5, 11]: 1.28
- total FIC50 [5, 12]: 0.553
- total FIC50 [5, 13]: 1.12
- total FIC50 [5, 14]: 0.097
- total FIC50 [5, 15]: -0.593
- total FIC50 [5, 17]: -0.0175
- total FIC50 [5, 18]: 0.0684
- total FIC50 [5, 19]: 0.378

Structure (SMILES): O=[N+]([O-])c1cn2c(n1)OC[C@@H](OCc1ccc(OC(F)(F)F)cc1)C2 [pretomanid] + NC(=O)c1cnccn1 [pyrazinamide] + CO[C@H]1/C=C/O[C@@]2(C)Oc3c(C)c(O)c4c(O)c(c(/C=N/N5CCN(C)CC5)c(O)c4c3C2=O)NC(=O)/C(C)=C\C=C\[C@H](C)[C@H](O)[C@@H](C)[C@@H](O)[C@@H](C)[C@H](OC(C)=O)[C@@H]1C [rifampicin]
- Einf [1, 6]: 0.907
- Einf [1, 7]: 0.988
- Einf [1, 8]: 0.875
- Einf [1, 9]: 0.943
- Einf [1, 10]: 0.694
- Einf [1, 11]: 0.895
- Einf [1, 12]: 0.867
- Einf [1, 13]: 0.997
- Einf [1, 14]: 0.863
- Einf [1, 15]: 0.983
- Einf [1, 16]: 0.981
- Einf [1, 17]: 0.897
- Einf [1, 18]: 0.854
- Einf [1, 19]: 0.933
- AUC25 [2, 6]: 0.0685
- AUC25 [2, 7]: 0.0533
- AUC25 [2, 8]: 0.1
- AUC25 [2, 9]: 0.098
- AUC25 [2, 10]: 0.109
- AUC25 [2, 11]: 0.0891
- AUC25 [2, 12]: 0.071
- AUC25 [2, 13]: 0.0574
- AUC25 [2, 14]: 0.0775
- AUC25 [2, 15]: 0.0697
- AUC25 [2, 17]: 0.0634
- AUC25 [2, 18]: 0.0616
- AUC25 [2, 19]: 0.0376
- GRinf [3, 6]: -0.202
- GRinf [3, 7]: -0.228
- GRinf [3, 8]: 0.153
- GRinf [3, 9]: 0.0978
- GRinf [3, 10]: -0.0437
- GRinf [3, 11]: -0.0945
- GRinf [3, 12]: -0.142
- GRinf [3, 13]: -0.5
- GRinf [3, 14]: 0.209
- GRinf [3, 15]: -0.11
- GRinf [3, 16]: -0.237
- GRinf [3, 17]: 0.147
- GRinf [3, 18]: 0.084
- GRinf [3, 19]: 0.0442
- total FIC90 [4, 7]: -0.637
- total FIC90 [4, 9]: 0.429
- total FIC90 [4, 13]: 0.673
- total FIC90 [4, 14]: -0.525
- total FIC90 [4, 15]: -0.0518
- total FIC90 [4, 16]: -0.273
- total FIC90 [4, 19]: -0.0725
- total FIC50 [5, 6]: 0.112
- total FIC50 [5, 7]: 0.156
- total FIC50 [5, 8]: -0.0322
- total FIC50 [5, 9]: -0.158
- total FIC50 [5, 11]: 1.25
- total FIC50 [5, 12]: 0.75
- total FIC50 [5, 13]: 1.36
- total FIC50 [5, 14]: -0.0806
- total FIC50 [5, 15]: -0.485
- total FIC50 [5, 17]: -0.426
- total FIC50 [5, 18]: 0.491
- total FIC50 [5, 19]: 0.477

Structure (SMILES): NC(=O)c1cnccn1 [pyrazinamide] + CO[C@H]1/C=C/O[C@@]2(C)Oc3c(C)c(O)c4c(O)c(c(/C=N/N5CCN(C6CCCC6)CC5)c(O)c4c3C2=O)NC(=O)/C(C)=C\C=C\[C@H](C)[C@H](O)[C@@H](C)[C@@H](O)[C@@H](C)[C@H](OC(C)=O)[C@@H]1C [rifapentine] + CO[C@H]1/C=C/O[C@@]2(C)Oc3c(C)c(O)c4c(O)c(c(/C=N/N5CCN(C)CC5)c(O)c4c3C2=O)NC(=O)/C(C)=C\C=C\[C@H](C)[C@H](O)[C@@H](C)[C@@H](O)[C@@H](C)[C@H](OC(C)=O)[C@@H]1C [rifampicin]
- Einf [1, 6]: 0.896
- Einf [1, 7]: 0.979
- Einf [1, 8]: 0.881
- Einf [1, 9]: 0.952
- Einf [1, 10]: 0.629
- Einf [1, 11]: 0.89
- Einf [1, 12]: 0.925
- Einf [1, 13]: 1
- Einf [1, 14]: 0.871
- Einf [1, 15]: 0.977
- Einf [1, 16]: 0.97
- Einf [1, 17]: 0.884
- Einf [1, 18]: 0.833
- Einf [1, 19]: 0.925
- AUC25 [2, 6]: 0.0803
- AUC25 [2, 7]: 0.0647
- AUC25 [2, 8]: 0.117
- AUC25 [2, 9]: 0.103
- AUC25 [2, 10]: 0.115
- AUC25 [2, 11]: 0.0851
- AUC25 [2, 12]: 0.0773
- AUC25 [2, 13]: 0.0817
- AUC25 [2, 14]: 0.083
- AUC25 [2, 15]: 0.0472
- AUC25 [2, 17]: 0.0549
- AUC25 [2, 18]: 0.0552
- AUC25 [2, 19]: 0.0295
- GRinf [3, 6]: -0.145
- GRinf [3, 7]: -0.174
- GRinf [3, 8]: 0.12
- GRinf [3, 9]: 0.104
- GRinf [3, 10]: 0.0861
- GRinf [3, 11]: -0.108
- GRinf [3, 12]: -0.227
- GRinf [3, 13]: -0.793
- GRinf [3, 14]: 0.235
- GRinf [3, 15]: -0.125
- GRinf [3, 16]: -0.213
- GRinf [3, 17]: 0.17
- GRinf [3, 18]: 0.0781
- GRinf [3, 19]: 0.0607
- total FIC90 [4, 7]: -1.03
- total FIC90 [4, 8]: 1.12
- total FIC90 [4, 9]: 0.732
- total FIC90 [4, 13]: 1.04
- total FIC90 [4, 14]: -0.329
- total FIC90 [4, 15]: -0.16
- total FIC90 [4, 16]: -0.0544
- total FIC90 [4, 19]: -0.0108
- total FIC50 [5, 6]: -0.178
- total FIC50 [5, 7]: -0.202
- total FIC50 [5, 8]: 0.0365
- total FIC50 [5, 9]: 0.198
- total FIC50 [5, 11]: 0.707
- total FIC50 [5, 12]: 0.97
- total FIC50 [5, 13]: 1.26
- total FIC50 [5, 14]: -0.0928
- total FIC50 [5, 15]: -0.147
- total FIC50 [5, 17]: -0.259
- total FIC50 [5, 18]: 0.198
- total FIC50 [5, 19]: 0.142
